Measured values reported in patent US8497092B2, “Method of bioassaying yokukansan” (Tsumura & Co., priority 2008, dated 2013).

Columns and labels:
PC12 cells [1] = test: Induction of cell death by glutamate in PC12 cells (MTT assay); format: cell-based, rat; conditions: regardless of whether NGF stimulation is present
Method: By using PC12 cells obtained in Example 1, a culture condition to efficiently induce cell death by glutamate was studied as follows.
From the above studies, the best culture condition for inducing cell death by glutamate was determined as follows: the cells are seeded on a plate coated with collagen, and a medium supplemented with dialyzed serum and without phenol red is used as an induction medium. The induction medium contains an antibiotic-containing medium obtained by adding 5 mL of a penicillin-streptomycin solution to 500 mL of RPMI 1640 medium (GIBCO 11835-030), 5% dialyzed fetal bovine serum (GIBCO 26400-044), and 10% dialyzed horse serum (Biowest S090D). […]
After 24 hours from the above induction of cell death, 0.5% MTT solution (Dojindo 345-01821) was added in an amount of 20 μL per 100 μL of the medium in the above 96-well plate and cultured for 5 hours. […] The crystals of formazan were dissolved using a pipette, and after leaving the solution overnight, the absorbance at a wavelength of 570 nm was measured with a reference wavelength of 690 nm using a spectrometer (Multiskan MCC/340, manufactured by Titertek, Inc.). Thereafter, the cell viability was calculated from the following calculation formula on the basis of the obtained absorbance. […]

PC12 cells [2] = conditions: Non-Patent Documents 1 to 3; cited from earlier work

Compound | cell death caused by glutamate (PC12 cells [1]) | inhibition of cell death caused by glutamate (PC12 cells [2])
N[C@@H](CCC(=O)O)C(=O)O [glutamate] | concentration-dependent manner | –
(−)-epigallocatechin gallate | – | cell death is inhibited
